{"source": "patent US20260325473A1", "about": "“N-Beta-Hydroxybutyryl-Amino Acids and Related Compositions and Methods” (The Board of Trustees of the Leland Stanford Junior …, priority 2023, published 2026)", "key": {"CNDP2 [1]": {"target": "T1, CNDP2 (Mus musculus, UniProt Q9D1A2)", "T1 sequence (Q9D1A2 1-475)": "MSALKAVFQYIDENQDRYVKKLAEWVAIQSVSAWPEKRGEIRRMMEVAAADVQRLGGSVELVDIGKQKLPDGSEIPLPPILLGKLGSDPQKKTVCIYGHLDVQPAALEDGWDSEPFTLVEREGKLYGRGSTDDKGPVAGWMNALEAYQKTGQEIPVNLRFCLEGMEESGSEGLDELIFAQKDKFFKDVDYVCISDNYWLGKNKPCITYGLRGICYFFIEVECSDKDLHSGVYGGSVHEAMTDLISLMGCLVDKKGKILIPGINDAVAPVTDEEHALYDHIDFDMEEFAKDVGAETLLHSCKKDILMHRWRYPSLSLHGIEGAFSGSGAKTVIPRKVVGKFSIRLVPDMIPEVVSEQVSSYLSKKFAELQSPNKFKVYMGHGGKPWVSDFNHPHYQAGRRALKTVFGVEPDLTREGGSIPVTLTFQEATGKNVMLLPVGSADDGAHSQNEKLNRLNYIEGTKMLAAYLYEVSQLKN", "experiment": "In situ live cell enzyme activity assay, CNDP2- or GFP-transfected HEK293T cells", "assay_type": "cell-based", "parameters": "expressed in transfected cells; host or cells: HEK293T (lysate)", "conditions": "role: product; BHB-treated; conditioned media", "method": "Cellular enzyme activity assays. Cells were plated in 12-well plates at 70-80% confluence. The next day, cells were washed two times with PBS and incubated in 0.5 ml serum-free medium. After overnight incubation, 400 μl of medium was removed and 20 μl of 1 M HCl were added to acidify the medium and to protonate keto amino acids. Ethyl acetate (400 μl) was added into each sample and reactions were vortexed for 30 s to extract keto amino acids into the organic layer. Reactions were centrifuged at 4° C. for 10 min at 15,000 r.p.m. and total of 300 μl from the top layer was transferred to a new Eppendorf tube and dried down under a stream of nitrogen. The residue was re-suspended in 150 μl of an 2:1:1 mixture of acetonitrile: methanol: water. The mixture was centrifuged at 4° C. for 10 min at 15,000 r.p.m. and the supernatant was transferred to a LC-MS vial. Cells were kept on ice to collect the lysate. PBS (150 μl) was added into each well and the cells scraped into an Eppendorf tube. This step was repeated again to ensure all cells were collected. Cells were then centrifuged at 4° C. for 10 min at 2,000g and the supernatant removed to obtain the cell pellet. A volume of 150 μl of a 2:1:1 mixture of acetonitrile: methanol:water mixture was used to lyse the cells and precipitate large proteins. […]"}, "[2]": {"experiment": "Human ketone ester supplementation study, plasma metabolites", "assay_type": "in vivo", "conditions": "0.3 g/kg ketone ester, 60 min vs baseline", "method": "Targeted metabolomics. Targeted measurements were performed using an Agilent 6470 triple quadrupole LC-MS instrument. MS analysis was performed using AJS in negative mode. The AJS source parameters were set as follows: the dry gas temperature was set at 250° C. with a gas flow of 12 l/min and the nebulizer pressure at 25 psi; the sheath gas temperature was set to 300° C. with the sheath gas flow set at 12 l/min; and the capillary voltage was set to 3,500 V. Separation of polar metabolites was performed as described above in the ‘Untargeted measurements of metabolites by LC-MS’ section. Multiple reaction monitoring was performed for the indicated metabolites with the listed dwell times, fragmentor voltage, collision energies, cell accelerator voltages and polarities. Quantification of the endogenous metabolite concentrations were performed by generating a standard curve with known concentrations of each metabolite. Metabolite standards were analyzed alongside the plasma samples using the same targeted triple quadrupole LC/MS method. A calibration standard curve generated from the metabolite standard concentrations and total peak areas were used to calculate the concentrations of each endogenous metabolite. The dilution of the plasma during the sample preparation was also taken into account for the quantification.\nHuman ketone ester supplementation study. Following screening, eligible subjects participated in a randomized, counter-balanced, double-blind, placebo-controlled crossover trial comparing BHB supplementation versus placebo, separated by a minimum of 2 days (ClinicalTrials.gov ID NCT04194450). Pre-menopausal women were tested in the follicular phase (days 3-9). Participants were asked to refrain from structured exercise and alcohol, limit physical activity, and follow a standardized diet (~50% carbohydrate, ~30% fat, ~20% protein) on the day before each trial. After refraining from medication use for 24 hours, participants reported to the Exercise, Metabolism and Inflammation Laboratory at the University of British Columbia-Okanagan in an overnight fasted state. Anthropometric measurements were obtained prior to insertion of an indwelling intravenous catheter into the antecubital vein for repeated blood sampling. Blood was collected into EDTA tubes (BD, 367863) and immediately centrifuged at 2000 rpm for 15 min and the top layer of plasma was aliquoted and frozen at −80 °C. After baseline (0) blood sample collection, the oral BHB supplement or placebo was consumed in liquid form (~30-65 mL). The BHB supplement (H.V.M.N®, USA) in the form of the ketone monoester (R)-3-hydroxybutyl (R)-3-hydroxybutyrate (AG®, TDeltaS, Oxford, UK) contained 0.4 g mL-1 BHB, natural flavoring, and <2% stevia leaf extract. The taste-matched placebo drink contained the same natural flavoring as the ketone supplement, stevia leaf extract, 5 mL of Bittrex stock (0.005 g of denatonium benzoate powder in 40 ml of water) and 1.5 mL of arrowroot stock (2 g of arrowroot powder in 50 ml of water) to match the bitter flavor and viscosity of the ketone monoester. Supplements were dispensed into opaque 80 ml bottles with volume calculated for 0.3 g BHB/kg body weight and labelled either A or B by a third-party researcher. Blinding was maintained until completion of data collection and analyses."}, "CNDP2 [3]": {"target": "T1, CNDP2", "experiment": "Tissue enzyme activity, WT or CNDP2-KO mouse tissue lysates", "assay_type": "biochemical", "conditions": "role: product; for synthesis activity in WT kidney and gut: 1 h, 37° C", "method": "Tissue enzyme activity assays. Mouse tissues were mixed with cold PBS and homogenized using a Benchmark BeadBlaster Homogenizer at 4 °C. Protein concentrations were adjusted and the resulting crude was filtered through a 0.45-μm filter to remove insoluble materials. The in vitro reactions were conducted in Eppendorf tubes with 200 μg protein and incubation with the corresponding substrates at 37° C. for 1 hour. After that time, 10 μl of HCl and 400 μl of ethyl acetate were added in the BHB and lactate reactions and the samples were vortexed for 30 s. Reactions were centrifuged at 4° C. for 10 min at 15,000 r.p.m. and total of 300 μl from the top layer was transferred to a new Eppendorf tube and dried down under a stream of nitrogen. The residue was re-suspended in 100 μl of an 2:1:1 mixture of acetonitrile: methanol: water. The mixture was centrifuged at 4° C. for 10 min at 15,000 r.p.m. and the supernatant was transferred to a LC-MS vial. For carnosine reactions, the reactions were not acidified and were directly quenched with 300 μl of an 2:1:1 mixture of acetonitrile: methanol: water after the 1 h incubation and vortexed for 30 s. The mixture was centrifuged at 4° C. for 10 min at 15,000 r.p.m. and the supernatant was transferred to a LC-MS vial."}}, "data": [{"smiles": "CC(O)CC(=O)N[C@@H](Cc1ccccc1)C(=O)O", "note": "(stereo partly shown) [BHB-Phe, N-betahydroxybutyryl-phenylalanine]", "values": [{"measurement": "keto amino acid production in CNDP2-transfected live cells", "setting": "CNDP2 [1]", "value": "robust production"}, {"measurement": "elevation of plasma keto amino acid after ketone ester drink", "setting": "[2]", "value": 3, "unit": "fold"}, {"measurement": "synthesis activity in WT brain, liver, and quadriceps", "setting": "CNDP2 [3]; BHB 20 mM + Phe 20 mM", "value": "lower, but detectable"}, {"measurement": "reduction of synthesis activity in CNDP2-KO vs WT, brain", "setting": "CNDP2 [3]; BHB 20 mM + Phe 20 mM, brain", "value": "> 85", "unit": "%"}, {"measurement": "reduction of synthesis activity in CNDP2-KO vs WT, gut", "setting": "CNDP2 [3]; BHB 20 mM + Phe 20 mM, gut", "value": "> 95", "unit": "%"}, {"measurement": "reduction of synthesis activity in CNDP2-KO vs WT, kidney", "setting": "CNDP2 [3]; BHB 20 mM + Phe 20 mM, kidney", "value": "> 95", "unit": "%"}, {"measurement": "reduction of synthesis activity in CNDP2-KO vs WT, liver", "setting": "CNDP2 [3]; BHB 20 mM + Phe 20 mM, liver", "value": "> 75", "unit": "%"}, {"measurement": "reduction of synthesis activity in CNDP2-KO vs WT, quadriceps", "setting": "CNDP2 [3]; BHB 20 mM + Phe 20 mM, quadriceps", "value": "> 60", "unit": "%"}, {"measurement": "synthesis activity in WT kidney and gut", "setting": "CNDP2 [3]; BHB 20 mM + amino acid 20 mM", "value": "highest BHB-Phe synthesis activity"}]}, {"smiles": "CC(O)CC(=O)N[C@H](C(=O)O)C(C)C", "note": "(stereo partly shown) [BHB-Val, N-betahydroxybutyryl-valine]", "values": [{"measurement": "keto amino acid production in CNDP2-transfected live cells", "setting": "CNDP2 [1]", "value": "robust production"}, {"measurement": "elevation of plasma keto amino acid after ketone ester drink", "setting": "[2]", "value": 2.5, "unit": "fold"}, {"measurement": "BHB-amino acid synthesis activity in CNDP2-KO kidney and gut", "setting": "CNDP2 [3]; BHB 20 mM + amino acid 20 mM", "value": "largely abolished"}, {"measurement": "synthesis activity in WT kidney and gut", "setting": "CNDP2 [3]; BHB 20 mM + amino acid 20 mM", "value": "highest BHB-amino acid synthesis activity"}]}]}
